Earlier results in patent US20110071172A1, “SUBSTITUTED QUINAZOLINES AS BLOOD PLATELET LOWERING AGENTS” (Shire LLC, priority 2008, published 2011).
pIC50: −log10 of the molar value.

How the values were obtained:
[1] = test system: human megakaryocytopoiesis
[2] = test system: human phosphodiesterase 111 (PDE III); details: for pIC50: read-out: IC50, PDE III inhibition
[3] = test system: erythroid or myelomonocytic differentiation; details: stimulated by erythropoietin or granulocyte-macrophage colony-stimulating factor

| SMILES | half-life (typical) [h] | exposure in vivo relative to parent drug (typical exposures versus anagrelide) | potency in inhibition of megakaryocytopoiesis relative to parent drug ([1]; versus anagrelide) | potency as PDE III inhibitor relative to anagrelide ([2]; ratio versus anagrelide) | effect on erythroid or myelomonocytic differentiation [3] | first pass effect (in vivo) [%] | pIC50 ([1]; estimated, in vitro, dose-dependent, read-out: IC50, inhibition of TPO-induced megakaryocytopoiesis) | pIC50 [2] |
| --- | --- | --- | --- | --- | --- | --- | --- | --- |
| O=C1NC2=Nc3ccc(Cl)c(Cl)c3CN2C1O (stereo not drawn) [3-hydroxyanagrelide] | 2.5 | 2-3 fold | no more potent than the parent drug | over 40 fold | – | – | – | – |
| O=C1CN2Cc3c(ccc(Cl)c3Cl)N=C2N1 [Anagrelide, 6,7-dichloro-1,5-dihydroimidazo[2,1-b]-quinazolin-2(3H)-one] | – | – | – | – | does not affect | > 50 | ~7.59 | ~7.54 |
| Cc1[nH]c(=O)c(C#N)cc1-c1ccncc1 [milrinone] | – | – | – | – | – | – | – | 6.46 to 6.77 |
